These results are taken from patent publication US11207385B2, “Melanocortins and methods of use thereof” (Aequus Biopharma, Inc., priority 2015, dated 2021).

As a reminder, the EC50 is the concentration giving half of the maximal effect.

The subject of data set [1] is plasma corticosterone. Description: Steroidogenic effects: corticosterone response in healthy mice (ELISA). Format: in vivo, Balb/c mice. The note with it: for Mean corticosterone: plasma 1 h after dosing. How it is done:
Compositions described herein were administered to Balb/c mice to determine the half-maximal effective concentrations for induction of corticosteroids in healthy mice. Balb/c mice were divided into 13 groups of 4 animals each (Groups 1-13), and each animal was administered a composition at a dosage as indicated in Table 5.
Each animal was injected subcutaneously at 0.2 ml/mouse as in Table 5. One hour after vehicle or test compositions were administered, the mice were anesthetized and exsanguinated into pre-chilled EDTA-treated microtainer tubes (Becton-Dickinson). The whole blood was processed to plasma and assayed by ELISA for corticosterone (Enzo Life Sciences).

The target in data set [2] is T1, MCR2 (Homo sapiens, UniProt Q01718).
T1 construct: expressed in transfected cells; host or cells: CHO (CHO-MCR2)
T1 sequence (Q01718 whole entry): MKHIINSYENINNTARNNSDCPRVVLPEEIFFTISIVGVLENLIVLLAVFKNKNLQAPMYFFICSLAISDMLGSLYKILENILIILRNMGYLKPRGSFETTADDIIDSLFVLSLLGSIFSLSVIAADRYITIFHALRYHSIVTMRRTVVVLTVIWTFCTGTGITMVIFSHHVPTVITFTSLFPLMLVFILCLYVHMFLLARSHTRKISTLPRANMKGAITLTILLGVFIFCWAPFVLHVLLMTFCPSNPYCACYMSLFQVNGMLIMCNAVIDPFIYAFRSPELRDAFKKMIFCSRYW
T1 sequence (Q8TCY5 whole entry partner): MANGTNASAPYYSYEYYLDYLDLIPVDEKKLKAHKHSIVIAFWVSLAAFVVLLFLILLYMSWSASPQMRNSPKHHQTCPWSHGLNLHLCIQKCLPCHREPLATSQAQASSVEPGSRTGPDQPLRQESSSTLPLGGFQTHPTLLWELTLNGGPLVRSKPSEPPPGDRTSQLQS
Nature of the data set: cAMP production (LANCE cAMP assay) in CHO-MCR2 cells. Format: cell-based. The source says: The manufacturer's recommended protocol was followed.

Data set [3] concerns murine models of gout (MSU-injected air pouch). Description: Murine air pouch model of gout, neutrophil counts and IL-1β in exudate (Example 6). Format: in vivo, Balb/c mice. The note with it: 3 and 10 nmol/mouse sc 1 h before MSU. How it is done:
An air pouch was formed by injecting 6 mL of sterile air using a syringe filter with a 0.22 micron air filter and 23-gauge needle subcutaneously into a shaved skin site on the back of male Balb/c mice (age 6-8 weeks) on Day 0. The wound result from the pouch was allowed to heal for 3 days without any intervention. The pouch was then re-inflated with 3 mL of sterile air on Day 3. Three days after re-inflation on Day 6, compositions described herein were administered via subcutaneous injection 1 hour prior to the administration of 30 mg monosodium urate crystals (MSU) directly into the air pouch to induce an inflammatory response. Four hours after injection of MSU, mice were anesthetized and exsanguinated. Exudate from the air pouch was collected by lavaging the air pouch of each animal with 3 ml of sterile PBS containing 10 U/ml heparin. Analyses performed on exudates include determining neutrophil counts and IL-1β cytokine concentrations. […] 10 • 3) NDP-α-MSH-linker-linker-ACTH1-24, SEQ ID NO. 23 • 4) ACTH1-24-linker-linker-NDP-α-MSH, SEQ ID NO. 26
SEQ ID NOS. […] SEQ ID NO. 23 and SEQ ID NO. […] 10 in reducing neutrophil counts and IL-1β cytokine concentrations in collected exudate, and the arrangement of SEQ ID NO. […] 23.

In data set [4] the target is T2, MCR4 (Homo sapiens, UniProt P32245).
T2 construct: expressed in transfected cells; host or cells: CHO (CHO-MCR4)
T2 sequence (P32245 whole entry): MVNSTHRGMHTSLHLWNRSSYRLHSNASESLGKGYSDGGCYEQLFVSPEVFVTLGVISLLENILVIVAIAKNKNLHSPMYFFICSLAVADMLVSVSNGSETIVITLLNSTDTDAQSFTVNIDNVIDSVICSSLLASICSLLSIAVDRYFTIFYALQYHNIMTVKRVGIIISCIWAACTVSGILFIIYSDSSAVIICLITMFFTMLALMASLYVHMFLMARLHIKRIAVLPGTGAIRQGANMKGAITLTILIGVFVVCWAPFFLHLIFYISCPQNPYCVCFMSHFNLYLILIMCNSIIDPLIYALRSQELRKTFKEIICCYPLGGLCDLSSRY
Description: cAMP production (LANCE cAMP assay) in CHO-MCR4 cells. Format: cell-based. As to conditions: Cell Pool B (partially enriched for MCR expression). A general note: Cyclic AMP is a second messenger, typically raised through Gs and lowered through Gi signalling.
Description: MCR stimulation in response to polypeptides added to cell culture media was measured by cAMP production via LANCE cAMP assay (Perkin Elmer cat #AD0263).
The manufacturer's recommended protocol was followed. […] To each well was added 5 uL of cell suspension (10,000 CHO-MCR cells per well, with Alexa-labeled antibodies). The mixtures were incubated for 30 minutes at room temperature. Then, to each well was added 10 uL of Detection Mix. The mixtures were incubated for 120 minutes at room temperature. […] This process was repeated for each of CHO-MCR1, CHO-MCR2, CHO-MCR3, CHO-MCR4 and CHO-MCR5 cells.

[5] abbreviates: Cell Pool B (partially enriched for MCR expression).
The mark [6] stands for this setting: Cell Pool A (partially enriched for MCR expression).

Square brackets hold non-standard residues; d marks the D form. Ends that are not written are not given here. Nle = CCCC[C@H](N)C(=O)O

Consider `CCCC[C@H](NC(=O)[C@H](CO)NC(=O)[C@H](Cc1ccc(O)cc1)NC(=O)[C@H](CO)NC(=O)[C@H](CO)NC(=O)CNC(=O)CNC(=O)CNC(=O)CNC(=O)[C@H](CO)NC(=O)CNC(=O)CNC(=O)CNC(=O)CNC(=O)[C@@H]1CCCN1C(=O)[C@H](Cc1ccc(O)cc1)NC(=O)[C@@H](NC(=O)[C@H](CCCCN)NC(=O)[C@@H](NC(=O)[C@@H]1CCCN1C(=O)[C@H](CCCNC(=N)N)NC(=O)[C@H](CCCNC(=N)N)NC(=O)[C@H](CCCCN)NC(=O)[C@H](CCCCN)NC(=O)CNC(=O)[C@@H](NC(=O)[C@@H]1CCCN1C(=O)[C@H](CCCCN)NC(=O)CNC(=O)[C@H](Cc1c[nH]c2ccccc12)NC(=O)[C@H](CCCNC(=N)N)NC(=O)[C@H](Cc1ccccc1)NC(=O)[C@H](Cc1c[nH]cn1)NC(=O)[C@H](CCC(=O)O)NC(=O)[C@H](CCSC)NC(=O)[C@H](CO)NC(=O)[C@H](Cc1ccc(O)cc1)NC(=O)[C@@H](N)CO)C(C)C)C(C)C)C(C)C)C(=O)N[C@@H](CCC(=O)O)C(=O)N[C@@H](Cc1c[nH]cn1)C(=O)N[C@H](Cc1ccccc1)C(=O)N[C@@H](CCCNC(=N)N)C(=O)N[C@@H](Cc1c[nH]c2ccccc12)C(=O)NCC(=O)N[C@@H](CCCCN)C(=O)N1CCC[C@H]1C(=O)N[C@H](C(=O)O)C(C)C` [SEQ ID NO. 26, ACTH1-24-linker-linker-NDP-α-MSH], for which the “Fold change over baseline (corticosterone)” value was found to be 0.8 in data set [1] (0.003 nmol/mouse sc); 1.0 in data set [1] (0.03 nmol/mouse sc); 1.8 in data set [1] (0.3 nmol/mouse sc); 3.3 in data set [1] (1.0 nmol/mouse sc); 3.4 in data set [1] (3.0 nmol/mouse sc); 4.4 in data set [1] (10.0 nmol/mouse sc). Further, the Mean corticosterone in data set [1] (0.003 nmol/mouse sc) is on record as 863553 pg/mL; in data set [1] (0.03 nmol/mouse sc), 116070 pg/mL; in data set [1] (0.3 nmol/mouse sc), 149581 pg/mL; in data set [1] (1.0 nmol/mouse sc), 264845 pg/mL; in data set [1] (3.0 nmol/mouse sc) it was 488734 pg/mL; in data set [1] (10.0 nmol/mouse sc), 514583 pg/mL. Besides, the “effect on plasma corticosterone” value in data set [1] (0.015, 0.15, and 1.5 μg/mouse sc) is listed as “no significant effect”. For the same compound, the “reduction in plasma corticosterone levels at equally active dose levels” value in data set [1] (3 nanomole SEQ ID NO. 26 versus 10 nanomole SEQ ID NO. 10, healthy mice) turned out to be 40%. Further, the “plasma corticosterone levels (significantly increased, not different from each other)” value in data set [1] (5.2-51.5 μg/mouse sc) was approximately 500 ng/mL. Also, the “plasma corticosterone after a single subcutaneous injection (dose response, words)” value in data set [1] (single sc injection 0.2 ml/mouse, FIG. 14) was “dose-dependent increase in plasma corticosterone”.

For the compound `CSCC[C@H](NC(=O)[C@H](CO)NC(=O)[C@H](Cc1ccc(O)cc1)NC(=O)[C@@H](N)CO)C(=O)N[C@@H](CCC(=O)O)C(=O)N[C@@H](Cc1c[nH]cn1)C(=O)N[C@@H](Cc1ccccc1)C(=O)N[C@@H](CCCNC(=N)N)C(=O)N[C@@H](Cc1c[nH]c2ccccc12)C(=O)NCC(=O)N[C@@H](CCCCN)C(=O)N1CCC[C@H]1C(=O)N[C@H](C(N)=O)C(C)C` [compound 11], the EC50 in data set [2] (Cell Pool C (optimized cell bank)) is more than 100 nM.

In the case of “NDP-α-MSH-linker-linker-ACTH1-24 (Ac-SYS[Nle]EH[dF]RWGKPVGGGGSGGGGSSYSMEHFRWGKPVGKKRRPVKVYP) [SEQ ID NO. 23]”, the “reducing neutrophil counts in collected exudate (comparison in words)” value in data set [3] (FIG. 8) was “more active than SEQ ID NO. 10”. Moreover, the “reducing IL-1β cytokine concentrations in collected exudate (comparison in words)” value in data set [3] (FIG. 9) is “more active than SEQ ID NO. 10”.

Take “SYSMEHFRWGKPVGKKRRPVKVYPELTGQRLREGDGPDGPADDGAGASYSMEHFRWGKPV [compound 43]”: the EC50 in data set [2] (setting [5]) is 0.18 nM; in data set [4] it was more than 20 nM.

In turn, “SYSMEHFRWGKPVGKKRRPVKVYPELTGQRLREGDGPDGPADDGAGASYS[Nle]EH[dF]RWGKPV [compound 40]” came in with a concentration giving a half-maximal response (EC50) in data set [2] (setting [5]) of 0.15 nM.

With “SYSMEHFRWGKPVGKKRRPVKVYPPLPEGGPEPRSDGAKPGPREGKRSYSMEHFRWGKPV [compound 42]”, the results for the EC50 in data set [2] (setting [5]) and in data set [4] were 0.15 nM and more than 20 nM, respectively.

With “SYSMEHFRWGKPVGKKRRPVKVYPPLPEGGPEPRSDGAKPGPREGKRSYS[Nle]EH[dF]RWGKPV [compound 39]”, the results for the concentration for a half-maximal effect (EC50) in data set [2] (setting [5]) and in data set [4] were 0.18 nM and 1.6 nM, respectively.

Regarding “YVMGHFRWDRFGKRSYSMEHFRWGKPVGKKRRPVKVYP [compound 1]”, in data set [2] (setting [6]), the concentration for a half-maximal effect (EC50) was 26 nM.

For “YVMGHFRWDRFGRRNSSSSGSSGAGQKR [compound 9]”, the EC50 in data set [2] (setting [5]) and in data set [4] was more than 100 nM throughout.

The compound “YVMGHFRWDRFGRRNSSSSGSSGAGQSYSMEHFRWGKPVGKKRRPVKVYP [compound 14]” had a concentration for a half-maximal effect (EC50) in data set [2] (setting [6]) of more than 100 nM.

For “YVMGHFRWDRFGSYSMEHFRWGKPVGKKRRPVKVYP [compound 15]”, in data set [2] (setting [6]), the EC50 came to 5 nM.
